Laboratory results taken from ChEMBL document CHEMBL5375997, “Small Molecule Inhibitors Targeting the "Undruggable" Survivin: The Past, Present, and Future from a Medicinal Chemist's Perspective” (J Med Chem, 2023).
Blank lines part the entries; values can stand above or below the compound they belong to.

What was measured:
[1] = tested on: A-375; test: Cytotoxicity against human A-375 cells assessed as inhibition of cell growth; format: functional, cell-based
[2] = tested on: M14; test: Antiproliferative activity against human M14 cells assessed as reduction cell viability incubated for 48 hrs by MTT assay; format: functional, cell-based; details: M14, 48 h
[3] = tested on: M14; test: Antiproliferative activity against human M14 cells assessed as inhibition of cell growth measured after 48 hrs by SRB assay; format: functional, cell-based; details: M14, 48 h
[4] = tested on: PC-3; test: Cytotoxicity against human PC-3 cells assessed as inhibition of cell growth; format: functional, cell-based
[5] = tested on: DU-145; test: Cytotoxicity against human DU-145 cells assessed as inhibition of cell growth; format: functional, cell-based
[6] = tested on: GBM528 (human); test: Antiproliferative activity against human GBM528 cells assessed as sphere formation inhibition
[7] = tested on: EKVX; test: Antiproliferative activity against human EKVX cells assessed as cell growth inhibition incubated for 72 hrs by MTT assay; format: functional, cell-based
[8] = tested on: NCI-H460; test: Antiproliferative activity against human NCI-H460 cells assessed as reduction in cell viability incubated for 24 hrs by MTT assay; format: functional, cell-based; details: NCI-H460, 24 h
[9] = tested on: A549; test: Antiproliferative activity against human A549 cells assessed as reduction in cell viability by MTT assay; format: functional, cell-based
[10] = tested on: HCT-116; test: Antiproliferative activity against human HCT-116 cells assessed as reduction in cell proliferation measured after 72 hrs by MTT assay; format: functional, cell-based; details: HCT-116, 72 h
[11] = tested on: HCT-8; test: Antiproliferative activity against human HCT-8 cells assessed as inhibition of cell growth; format: functional, cell-based
[12] = tested on: SW-620; test: Antiproliferative activity against human SW620 cells assessed as reduction in cell viability incubated for 72 hrs by MTT assay; format: functional, cell-based; details: SW-620, 72 h
[13] = AUC in mouse plasma at 3 mg/kg, iv measured upto 24 hrs by LC-MS/MS analysis; format: ADME, organism-based; parameters: dose 3 mg/kg, time < 24 hrs, route iv; details: in vivo
[14] = Clearance in […] at 3 mg/kg, iv incubated for 24 hrs by LC-MS/MS analysis; format: ADME, organism-based; details: in vivo
[15] = Cmax in […] at 1 mg/kg, iv and measured upto 24 hrs by LC/MS/MS analysis; format: ADME, organism-based; parameters: time < 24 hrs, dose 1 mg/kg, route iv; details: in vivo
[16] = Half life in CD1 mouse at 1 mg/kg, iv by LC-MS/MS analysis; format: ADME, organism-based; details: in vivo
[17] = tested on: PC-3; test: Cytotoxicity against human PC-3 cells assessed as reduction in cell viability incubated for 24 hrs by MTT assay; details: PC-3, 24 h
[18] = tested on: DU-145; test: cells; details: Homo sapiens, DU-145, 24 h
Description: Cytotoxicity against human DU-145 cells assessed as inhibition of cell growth incubated for 24 hrs by MTT assay

[19] = tested on: NCI-H69; test: Antiproliferative activity against human NCI-H69 cells assessed as reduction in cell growth; format: functional, cell-based
[20] = tested on: PC-3; test: Anticancer activity against human PC-3 cells assessed as cell growth inhibition by sulforhodamine B assay; format: functional, cell-based
[21] = tested on: LNCaP C4-2; test: Antiproliferative activity against human LNCaP C4-2 cells assessed as cell growth inhibition; format: functional, cell-based
[22] = tested on: LNCaP C4-2; test: Cytotoxicity against human LNCaP C4-2 cells assessed as cell growth inhibition incubated for 24 hrs by MTT assay; format: functional, cell-based; details: LNCaP C4-2, 24 h
[23] = tested on: PC-3; test: Cytotoxicity against human PC-3 cells assessed as reduction in cell growth incubated for 72 hrs by SRB assay; format: functional, cell-based; details: PC-3, 72 h
[24] = tested on: MDA-MB-231; test: Cytotoxicity against human MDA-MB-231 cells assessed as inhibition of cell growth incubated for 72 hrs by SRB assay; format: functional, cell-based; details: MDA-MB-231, 72 h
[25] = tested on: HepG2; test: Cytotoxicity against human HepG2 cells assessed as reduction in cell viability incubated for 72 hrs by SRB assay; format: functional, cell-based; details: HepG2, 72 h

SMILES: Oc1c(CN2CCCC2)cc(COCc2ccccc2)c2cccnc12
IC50 [1]: 1.6 µM | IC50 [2]: 2.5 µM | IC50 [3]: 3.2 µM | IC50 [4]: 0.7 µM | IC50 [5]: 3.4 µM

SMILES: N#Cc1c(-c2cc(OCc3ccccc3)cc(OCc3ccccc3)c2)cc(-c2cc(Cl)ccc2O)[nH]c1=O
IC50 [6]: 31.2 µM

SMILES: CC[C@@]1(O)C(=O)OCc2c1cc1n(c2=O)Cc2cc3cc4c(cc3nc2-1)OCO4
IC50 [7]: 0.006 µM | IC50 [8]: 0.003 µM | IC50 [9]: 0.009 µM | IC50 [10]: 0.005 µM | IC50 [11]: 0.005 µM | IC50 [12]: 0.009 µM | AUC [13]: 82 ng·h/mL | clearance [14]: 900 mL/min/kg | Cmax [15]: 43 ng/mL | half-life [16]: 1.8 h

IC50 [18]: 3.3 µM
SMILES: Cc1ccc(-c2ccc(/C=N/Nc3nc4nonc4nc3Nc3ccc(Br)cc3)o2)cc1Cl
IC50 [17]: 3.5 µM

IC50 [18]: 3.5 µM
SMILES: CCOC(=O)c1ccc(Nc2nc3nonc3nc2N/N=C/c2c[nH]nc2-c2ccccc2)cc1

IC50 [18]: 2.6 µM
SMILES: Cc1cccc(Nc2nc3nonc3nc2N/N=C/c2cc3c(cc2[N+](=O)[O-])OCO3)c1C
IC50 [17]: 2.1 µM

IC50 [18]: 25 µM
SMILES: Cc1cccc(Nc2nc3nonc3nc2N/N=C/c2ccc(-c3cccc(C(=O)O)c3)o2)c1C
IC50 [17]: 20 µM

IC50 [18]: 7.2 µM
SMILES: Cc1cccc(Nc2nc3nonc3nc2N/N=C/c2ccc(-c3ccc(Cl)c([N+](=O)[O-])c3)o2)c1C
IC50 [17]: 4.8 µM

IC50 [18]: 60.3 µM
SMILES: O=C1N=c2ccc(Nc3nc4nonc4nc3N/N=C/c3ccccc3OCc3ccc(Cl)cc3Cl)cc2=N1
IC50 [17]: 49.8 µM

IC50 [19]: > 100 µM
SMILES: Oc1ccc(CCCc2ccc(O)c(O)c2)cc1O

IC50 [19]: 3 µM
SMILES: Oc1ccc(CCCCCc2ccc(O)c(O)c2)cc1O

IC50 [20]: 4.3 µM | IC50 [21]: 1.9 µM
SMILES: Nc1nonc1C(=O)N/N=C1\c2ccccc2-c2nc3nonc3nc21
IC50 [17]: 4.3 µM | IC50 [22]: 1.9 µM

SMILES: N#Cc1c(-c2ccc(F)cc2)cc(-c2ccc(OCc3ccc(F)cc3)cc2)[nH]c1=S
IC50 [23]: 23 µM | IC50 [24]: 23 µM | IC50 [25]: 23 µM

SMILES: COc1ccc(-c2cc(-c3ccc(OCc4ccc(F)cc4)cc3)[nH]c(=O)c2C#N)cc1
IC50 [23]: 4.46 µM | IC50 [24]: 3.59 µM | IC50 [25]: 6.01 µM

SMILES: N#Cc1c(-c2ccc(Br)cc2)cc(-c2ccc(OCc3ccc(F)cc3)cc2)nc1N
IC50 [23]: 30 µM | IC50 [24]: 30 µM | IC50 [25]: 30 µM

SMILES: COc1ccc(-c2cc(-c3ccc(OCc4ccc(F)cc4)cc3)[nH]c(=S)c2C#N)cc1
IC50 [23]: 23 µM | IC50 [24]: 23 µM | IC50 [25]: 23 µM
